ChEMBL document CHEMBL1201862, “PubChem BioAssay data set” (2004)
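Tested at 5 concentrations; 48 h exposure; 96-well plates; endpoints linearly interpolated, else capped at highest concentration. GI50 = concentration required for 50% inhibition of growth.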 Calls of active or inactive are those of the source. Cut-off read from the data, not from the text of the source: active = GI50 up to about 1.1 µM and inactive = higher.

Columns and labels:
Assay in all cases: NCI-60 cell line screen, 48 h
786-0 = test system: 786-0
COLO 205 = test system: COLO 205
HCC 2998 = test system: HCC 2998
HOP-62 = test system: HOP-62
LOX IMVI = test system: LOX IMVI
NCI-H460 = test system: NCI-H460
OVCAR-3 = test system: OVCAR-3
OVCAR-8 = test system: OVCAR-8
RPMI-8226 = test system: RPMI-8226
RXF 393 = test system: RXF 393
SK-OV-3 = test system: SK-OV-3
SW-620 = test system: SW-620
TK-10 = test system: TK-10
UACC-257 = test system: UACC-257
UACC-62 = test system: UACC-62
A498 = test system: A498
U-251 = test system: U-251

Measured: GI50

C#CCC(O)c1ccccc1C(O)CC#C (centres undefined)
inactive: 786-0 > 100 µM | COLO 205 > 100 µM | HCC 2998 89.3 µM | HOP-62 > 100 µM | LOX IMVI > 100 µM | NCI-H460 > 100 µM | OVCAR-3 > 100 µM | OVCAR-8 > 100 µM | RPMI-8226 > 100 µM | RXF 393 29 µM | SK-OV-3 39.7 µM | SW-620 > 100 µM | TK-10 97.5 µM | UACC-257 > 100 µM | UACC-62 > 100 µM

CC1=C(C(=O)O)N2C(=O)[C@@H](NC(=O)C(c3ccccc3)N3CSC(=S)N(C(C)C)C3)C2SC1 (some centres undefined)
inactive: 786-0 > 100 µM | A498 > 100 µM | COLO 205 86.3 µM | HOP-62 > 100 µM | LOX IMVI > 100 µM | NCI-H460 > 100 µM | OVCAR-3 > 100 µM | OVCAR-8 > 100 µM | RPMI-8226 > 100 µM | SK-OV-3 > 100 µM | TK-10 > 100 µM | U-251 > 100 µM | UACC-257 > 100 µM | UACC-62 > 100 µM

CCOC(=O)/C(C(=O)c1ccccc1)=C1\N[C@H](C(=O)OCC)CS1
inactive: 786-0 10 µM | COLO 205 > 100 µM | HCC 2998 > 100 µM | HOP-62 > 100 µM | LOX IMVI > 100 µM | NCI-H460 > 100 µM | OVCAR-3 > 100 µM | OVCAR-8 > 100 µM | RPMI-8226 > 100 µM | RXF 393 > 100 µM | SW-620 > 100 µM | U-251 > 100 µM | UACC-257 > 100 µM | UACC-62 > 100 µM

N#CC(C#N)c1ccc(C(=O)N2CCC[C@H]2CO)cc1
inactive: 786-0 > 100 µM | COLO 205 > 100 µM | HCC 2998 > 100 µM | HOP-62 > 100 µM | LOX IMVI > 100 µM | NCI-H460 > 100 µM | OVCAR-3 > 100 µM | OVCAR-8 > 100 µM | RPMI-8226 > 100 µM | RXF 393 > 100 µM | SK-OV-3 > 100 µM | SW-620 > 100 µM | TK-10 > 100 µM | U-251 > 100 µM | UACC-257 > 100 µM | UACC-62 > 100 µM

O=c1cccccc1NCCCCCCCCCNc1cccccc1=O
inactive: 786-0 22.1 µM | COLO 205 3.23 µM | HCC 2998 13.3 µM | HOP-62 15.1 µM | LOX IMVI 5.9 µM | NCI-H460 9.51 µM | OVCAR-3 9.06 µM | OVCAR-8 13.6 µM | RPMI-8226 4.4 µM | RXF 393 22.5 µM | SK-OV-3 33.1 µM | SW-620 18.6 µM | U-251 10.6 µM | UACC-257 2.12 µM | UACC-62 12.5 µM
